We go through six compounds from patent US8084621B2, “3-Pyrrolo[b]cyclohexylene-2-dihydroindolinone derivatives and uses thereof” (Jiangsu Simcere Pharmaceutical R&D Co. Ltd., priority 2006, dated 2011).

Format in all cases: cell-based
Experiment [1] relates to Human Hepatocellular Carcinoma Cell Line (HEPG2). Nature of the experiment: Tumor cell proliferation assay (MTT), HEPG2. The note with it: for inhibition at 10 µM: concentration of 10^−5 mol/L, preliminary screening, 72 hours, read-out: Inhibition rate % HEPG2; for IC50: secondary screening, 48 hours. The text has this:
(§1) The assay used generally is the blue tetrazolium bromide (MTT) method. […] The amount of formazan can be detected by the microplate reader through the absorption value at 570 nm. The amount of formazan product generated is proportional to the number of living cells in the sample, so the OD value may reflect the number of living cells and the ability of a test drug to inhibit or kill cells. The MTT assay may be used in determining the ability of different compounds of the present invention to inhibit one or more cancer cells proliferation. Similar assays can be designed along the same lines for any cancer cell using techniques well known in the art.
(§2) The assay used generally is the blue tetrazolium bromide (MTT) method. […] Intracellular purple formazan salt crystals can be solved in DMSO and the absorption value at 570 nm is detected by the microplate reader, then the number of living cells can be detected indirectly. So MTT assay may be used to determine the ability of a compound of the present invention to inhibit cell proliferation. Similar assays can be designed along the same lines for any cancer cell using techniques well known in the art.
2.2.8 Human Hepatocellular Carcinoma Cell Line (HEPG2);
The cells of 2.2.8, 2.2.9 cultured in DMEM/High glucose medium containing 12% calf serum in the condition of 37° C., 5% CO2.
(§3) 2.3.1 Cell seeding: Trypsinize the cell by 0.05% trypsin-EDTA and add RPMI 1640 medium (DMEM or 5A) containing 12% calf serum. Count the number, then dilute to 1.67×10^4/ml. Add 180 ul/well to the 96 well plate (3000 cells/well).
(§4) 2.3.2 Culture: cells are incubated for 24 hours at 37° C. under 5% CO2.
(§5) 2.3.3 Preliminary screening: The compounds are firstly diluted to 0.1 mol/L with DMSO, and then diluted to three concentrations of 10^−5 mol/L, 10^−6 mol/L and 10^−7 mol/L. Add 20 ul test compounds to the 96 well plate and incubate for 72 hours. Each group has three parallel wells and all experiments repeat three times. Each inhibition ratio is calculated, then an average value of three times is taken as the measured value. 2.3.4 Staining 2.3.4.1 Attached cell: add 20 ul/well MTT to the 96-well plates; incubate for 4 hours in the incubator. Pour out the culture medium in the well and add 100 ul/well DMSO. Shake the plate for 5 min. 2.3.4.2 Suspension cell: add 20 ul/well MTT to the 96-well plates; incubate for 4 hours in the incubator. Add 50 ul/well 20% SDS and incubate for overnight in the incubator. 2.3.5 Reading the plates: read the absorbance A570-A630 with the Infinite M200 microtiter plate reader. Calculate the inhibition ratio of the test compounds. 2.3.6 Secondary screening: the compounds whose inhibition ratio is greater than 50% at the concentrations of 10^−5 mol/L in the preliminary screening will be picked out for Secondary screening. Dilute these compounds to ten concentrations: 10^−5 mol/L, 0.5×10^−5 mol/L, 10^−6 mol/L, 0.8×10^−6 mol/L, 0.6×10^−6 mol/L, 0.4×10^−6 mol/L, 0.2×10^−6 mol/L, 10^−7 mol/L, 0.8×10^−7 mol/L and 0.4×10^−7 mol/L. Add 20 ul test compound solution to the 96 well plate and incubate for 48 hours. Each group has three parallel wells and all experiments repeat for three times. Read the plates and calculate the inhibition ratio according to the preliminary screening method. 2.3.7 Calculate the Inhibition Ratio of Cell Proliferation and the IC50
(§6) According to the inhibition ratio of cell proliferation at the different concentrations of the compound, inhibition ratio of 50% of the test compound is calculated through the logarithm of the concentration of the compound with the Logit [I] linear regression, and an average value of three times is taken as the measured value of a sample.

Experiment [2] relates to Human Non-Small Cell Lung Cancer Cell Line (A549). Description: Tumor cell proliferation assay (MTT), A549. As to conditions: for inhibition at 10 µM: concentration of 10^−5 mol/L, preliminary screening, 72 hours, read-out: Inhibition rate % A549; for IC50: secondary screening, 48 hours.
Source text: as §1, §2
2.2.2 Human Non-Small Cell Lung Cancer Cell Line (A549)
(§7) The cells of the 2.2.1, 2.2.2, 2.2.3, 2.2.4, 2.2.5 cultured with RPMI 1640 containing 12% calf serum in the condition of 37° C., 5% CO2.
as §3, §4, §5, §6

Experiment [3] relates to Human Pancreatic Carcinoma Cell Line (BXPC-3). Nature of the experiment: Tumor cell proliferation assay (MTT), BXPC-3. The note with it: for inhibition at 10 µM: concentration of 10^−5 mol/L, preliminary screening, 72 hours, read-out: Inhibition rate % BXPC-3; for IC50: secondary screening, 48 hours.
Source text: as §1, §2
2.2.6 Human Pancreatic Carcinoma Cell Line (BXPC-3);
(§8) The cells of 2.2.6, 2.2.7 cultured in RPMI 1640 medium containing 12% fetal bovine serum in the condition of 37° C., 5% CO2.
as §3, §4
as §5, with “2.3.6 Secondary screening: the compounds whose inhibition ratio is greater than 50% at the concentrations of 10^−5 mol/L in the preliminary screening will be picked out for Secondary screening.” left out
as §6

In experiment [4] the test system is Human Gastric Cancer Cell Line (BGC). Description: Tumor cell proliferation assay (MTT), BGC. As to conditions: for inhibition at 10 µM: concentration of 10^−5 mol/L, preliminary screening, 72 hours, read-out: Inhibition rate % BGC; for IC50: secondary screening, 48 hours.
Source text: as §1, §2
2.2.1 Human Gastric Cancer Cell Line (BGC)
as §7, §3, §4, §5, §6

In experiment [5] the test system is Human Bladder Cancer Cell Line (T24). Description: Tumor cell proliferation assay (MTT), T24. The note with it: for inhibition at 10 µM: concentration of 10^−5 mol/L, preliminary screening, 72 hours, read-out: Inhibition rate % T24; for IC50: secondary screening, 48 hours.
Source text: as §1, §2
2.2.7 Human Bladder Cancer Cell Line (T24);
as §8, §3, §4, §5, §6

Experiment [6] concerns Human Colon Cancer Cell Line (HT-29). Description: Tumor cell proliferation assay (MTT), HT29. As to conditions: for inhibition at 10 µM: concentration of 10^−5 mol/L, preliminary screening, 72 hours, read-out: Inhibition rate % HT29; for IC50: secondary screening, 48 hours.
Source text: as §1, §2
2.2.11 Human Colon Cancer Cell Line (HT-29);
(§9) The cells of 2.2.11, 2.2.12, 2.2.13 were cultured in MC COYS 5-A medium containing 12% fetal bovine serum in the condition of 37° C., 5% CO2.
as §3, §4
as §5, with “2.3.6 Secondary screening: the compounds whose inhibition ratio is greater than 50% at the concentrations of 10^−5 mol/L in the preliminary screening will be picked out for Secondary screening.” left out
as §6

Experiment [7] relates to Human Pancreatic Carcinoma Cells (PANC-1). Description: Tumor cell proliferation assay (MTT), PANC-1. As to conditions: for inhibition at 10 µM: concentration of 10^−5 mol/L, preliminary screening, 72 hours, read-out: Inhibition rate % PANC-1; for IC50: secondary screening, 48 hours.
Source text: as §1, §2
2.2.4 Human Pancreatic Carcinoma Cells (PANC-1)
as §7, §3, §4, §5, §6

For experiment [8], the system named is Human Colon Cancer Cell Line (CACO-2). Nature of the experiment: Tumor cell proliferation assay (MTT), CACO-2. The note with it: concentration of 10^−5 mol/L, preliminary screening, 72 hours, read-out: Inhibition rate % CACO-2.
Source text: as §1, §2
2.2.10 Human Colon Cancer Cell Line (CACO-2)
The cell of 2.2.10 cultured in DMEM/High glucose medium containing 12% fetal bovine serum in the condition of 37° C., 5% CO2.
as §3, §4, §5, §6

Experiment [9] relates to Human Ovarian Cancer Cell Line (SK-OV-3). Nature of the experiment: Tumor cell proliferation assay (MTT), SK-OV-3. The note with it: for inhibition at 10 µM: concentration of 10^−5 mol/L, preliminary screening, 72 hours, read-out: Inhibition rate % SK-OV-3; for IC50: secondary screening, 48 hours.
Source text: as §1, §2
2.2.13 Human Ovarian Cancer Cell Line (SK-OV-3).
as §9, §3, §4, §5, §6

Experiment [10] deals with Human Small Cell Lung Cancer Cell Line (NCI-H446). Nature of the experiment: Tumor cell proliferation assay (MTT), NCI-H446. The note with it: for inhibition at 10 µM: concentration of 10^−5 mol/L, preliminary screening, 72 hours, read-out: Inhibition rate % NCI-H446; for IC50: secondary screening, 48 hours.
Source text: as §1, §2
2.2.5 Human Small Cell Lung Cancer Cell Line (NCI-H446)
as §7, §3, §4, §5, §6

In the case of `Cc1[nH]c2c(c1C(=O)N1CCOCC1)CCC/C2=C1/C(=O)Nc2ccc(F)cc21` [I-10, 2-methyl-3-(morpholine-4-carbonyl)-7-[1,2-dihydro-5-fluoro-2-oxo-3H-indol-(Z)-3-ylidene]-4,5,6,7-tetrahydro-1H-indole], the inhibition at 10 µM in experiment [1] stood at 43.5%; in [2] it was 7.64%; in experiment [3] it was 51.7%; in experiment [4], 15.2%; in experiment [5], 27.5%; in experiment [6] it was 30.9%. In addition, the inhibition at 10 µM in experiment [7] is 11.7%; in experiment [8], 0%.

Take `Cc1[nH]c2c(c1C(=O)NCC(O)CN1CCCCC1)CCC/C2=C1/C(=O)Nc2ccc(Cl)cc21` (centres unmarked) [I-75, N-(2-hydroxy-3-(piperidin-1-yl)propyl)-2-methyl-7-[1,2-dihydro-5-chloro-2-oxo-3H-indol-(Z)-3-ylidene]-4,5,6,7-tetrahydro-1H-indole-3-carboxamide]: the inhibition at 10 µM in experiment [1] is 99%; in [2] it was 40.1%; in [3], 73.1%; in [4], 45.4%; in [5] it was 99.9%; in experiment [6], 67.3%. The inhibition at 10 µM worked out at 53.6% in [7], 49.2% in [9] and 44.1% in experiment [10]. In addition, the 50% inhibitory concentration (IC50) in experiment [1] was found to be 3.59 µM; in experiment [2] it was 14.5 µM; in experiment [3], 4.47 µM; in [4] it was 11.1 µM; in experiment [5], 3.99 µM; in experiment [6], 5.17 µM. The IC50 in [7] was 3.58 µM; in [9], 5.69 µM; in [10] it was 9.25 µM.

Turning to `Cc1[nH]c2c(c1C(=O)N(C)C)CCC/C2=C1/C(=O)Nc2ccccc21` [I-15, N,N,2-trimethyl-7-[1,2-dihydro-2-oxo-3H-indol-(Z)-3-ylidene]-4,5,6,7-tetrahydro-1H-indole-3-carboxamide], the inhibition at 10 µM in [1] is 61.1%; in experiment [5], 74.8%.

Regarding `CCN(CC)CC(O)CNC(=O)c1c(C)[nH]c2c1CCC/C2=C1/C(=O)Nc2ccc(Cl)cc21` (centres unmarked) [I-65, N-(3-(diethylamino)-2-hydroxypropyl)-2-methyl-7-[1,2-dihydro-5-chloro-2-oxo-3H-indol-(Z)-3-ylidene]-4,5,6,7-tetrahydro-1H-indole-3-carboxamide], the inhibition at 10 µM stood at 100% in experiment [1]; 85% in [2]; 99.2% in experiment [3]; 91.1% in experiment [4]; 97.9% in experiment [5]; 98.3% in [6]. Moreover, the figures for the inhibition at 10 µM in experiment [7], in experiment [9] and in experiment [10] were 98.1%, 95.7% and 99%, respectively. For the same compound, the IC50 in [1] came to 2.8 µM; in [2] it was 2.38 µM; in [3] it was 1.15 µM; in experiment [4], 1.72 µM; in experiment [5], 2.73 µM; in experiment [6], 3.06 µM. In addition, the values for the IC50 in experiment [7], in [9] and in [10] were 1.67 µM, 2.23 µM and 1.5 µM, respectively.

As for `Cc1[nH]c2c(c1C(=O)N1CCOCC1)CCC/C2=C1/C(=O)Nc2ccc(Cl)cc21` [I-11, 2-methyl-3-(morpholine-4-carbonyl)-7-[1,2-dihydro-5-chloro-2-oxo-3H-indol-(Z)-3-ylidene]-4,5,6,7-tetrahydro-1H-indole], the figures for the inhibition at 10 µM in [1] and in [5] were 2.92% and 0%, respectively.

With `Cc1[nH]c2c(c1C(=O)NCC(O)CN1CCCC1)CCC/C2=C1/C(=O)Nc2ccc(Cl)cc21` (centres unmarked) [I-72, N-(2-hydroxy-3-(pyrrolidin-1-yl)propyl)-2-methyl-7-[1,2-dihydro-5-chloro-2-oxo-3H-indol-(Z)-3-ylidene]-4,5,6,7-tetrahydro-1H-indole-3-carboxamide], the inhibition at 10 µM in experiment [2] turned out to be 81.2%; in experiment [3] it was 99.3%; in [4], 85.9%; in experiment [6], 97.4%; in experiment [7] it was 98.1%; in [9], 95.1%. The inhibition at 10 µM in experiment [10] is 97.9%. For the same compound, the IC50 in experiment [2] was 3.73 µM; in experiment [3], 1.89 µM; in [4], 2.92 µM; in experiment [6] it was 4.36 µM; in experiment [7], 1.81 µM; in experiment [9], 2.17 µM. The compound further had an IC50 in experiment [10] of 2.98 µM.
